Measurements reported in patent US20230339889A1, “DERIVATIVES OF 2-OXO-N-(4-(PYRIMIDIN-4-YLOXY/THIO)PHENYL)-1,2-DIHYDROPYRIDINE-3-CARBOXAMIDE FOR USE AS PROTEIN KINASE INHIBITORS FOR THERAPY” (AUCENTRA THERAPEUTICS PTY LTD, priority 2020, published 2023).

Assays:
AXL = molecular target: T1, AXL (Homo sapiens, UniProt P30530); experiment: Filter-binding radiometric kinase activity assay (KinaseProfiler, Eurofins); type: biochemical; conditions: 1 µM compound; read-out: % Residual enzymatic activity at 1 µM AXL
T1 construct: purchased Eurofins Discovery (Kinase Profiler service)
T1 sequence (P30530 26-894): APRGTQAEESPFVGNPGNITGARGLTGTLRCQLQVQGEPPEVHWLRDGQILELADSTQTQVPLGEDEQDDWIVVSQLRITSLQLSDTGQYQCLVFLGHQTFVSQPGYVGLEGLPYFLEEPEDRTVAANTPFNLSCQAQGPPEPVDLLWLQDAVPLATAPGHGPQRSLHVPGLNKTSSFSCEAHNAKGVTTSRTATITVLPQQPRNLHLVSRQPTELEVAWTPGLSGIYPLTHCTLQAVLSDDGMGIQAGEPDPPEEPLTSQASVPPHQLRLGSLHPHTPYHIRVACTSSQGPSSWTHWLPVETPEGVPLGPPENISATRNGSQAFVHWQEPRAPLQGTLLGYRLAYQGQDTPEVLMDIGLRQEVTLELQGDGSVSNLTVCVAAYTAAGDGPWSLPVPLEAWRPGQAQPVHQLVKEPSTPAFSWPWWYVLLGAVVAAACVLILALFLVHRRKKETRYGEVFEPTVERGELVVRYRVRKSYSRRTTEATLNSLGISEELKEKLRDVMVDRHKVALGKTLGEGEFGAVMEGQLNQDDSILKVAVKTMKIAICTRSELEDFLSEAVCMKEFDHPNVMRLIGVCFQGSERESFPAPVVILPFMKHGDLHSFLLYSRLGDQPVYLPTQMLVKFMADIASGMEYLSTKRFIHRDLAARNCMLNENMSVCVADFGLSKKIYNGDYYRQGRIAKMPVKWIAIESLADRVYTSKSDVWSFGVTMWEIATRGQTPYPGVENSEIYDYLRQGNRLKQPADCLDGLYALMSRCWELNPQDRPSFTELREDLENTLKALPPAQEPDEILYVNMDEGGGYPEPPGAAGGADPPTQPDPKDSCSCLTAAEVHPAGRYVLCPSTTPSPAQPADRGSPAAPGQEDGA
Protocol: (§1) Filter-binding radiometric kinase activity assay (Kinase Profiler™) from Eurofins Discovery was used to determine the % of inhibition and/or IC50 values. […] The reaction is initiated by the addition of the Mg/ATP mixture. After incubation for 40 minutes at room temperature, the reaction is stopped by the addition of phosphoric acid to a concentration of 0.5%. 10 µL of the reaction is then spotted onto a P30 filter mat and washed four times for 4 minutes in 0.425% phosphoric acid and once in methanol prior to drying and scintillation counting. The IC50 values were derived by fitting a sigmoidal dose-response curve to a plot of assay readout over inhibitor concentration. All fits were computed with the GraphPad Prism Software (San Diego, CA, United States of America). Ki values were derived from IC5o values using Cheng Prusoff equation (Cheng Y et al., Biochem Pharmacol 22(23):3099-3108, 1973).

MET = molecular target: T2, MET (Homo sapiens, UniProt P08581); experiment: as above; type: biochemical; conditions: 1 µM compound; read-out: % Residual enzymatic activity at 1 µM MET
T2 construct: purchased Eurofins Discovery (Kinase Profiler service)
Protocol: as §1

Mer = molecular target: T3, Mer (Homo sapiens, UniProt Q12866); experiment: as above; type: biochemical; conditions: 1 µM compound; read-out: % Residual enzymatic activity at 1 µM Mer
T3 construct: purchased Eurofins Discovery (Kinase Profiler service)
T3 sequence (Q12866 21-999): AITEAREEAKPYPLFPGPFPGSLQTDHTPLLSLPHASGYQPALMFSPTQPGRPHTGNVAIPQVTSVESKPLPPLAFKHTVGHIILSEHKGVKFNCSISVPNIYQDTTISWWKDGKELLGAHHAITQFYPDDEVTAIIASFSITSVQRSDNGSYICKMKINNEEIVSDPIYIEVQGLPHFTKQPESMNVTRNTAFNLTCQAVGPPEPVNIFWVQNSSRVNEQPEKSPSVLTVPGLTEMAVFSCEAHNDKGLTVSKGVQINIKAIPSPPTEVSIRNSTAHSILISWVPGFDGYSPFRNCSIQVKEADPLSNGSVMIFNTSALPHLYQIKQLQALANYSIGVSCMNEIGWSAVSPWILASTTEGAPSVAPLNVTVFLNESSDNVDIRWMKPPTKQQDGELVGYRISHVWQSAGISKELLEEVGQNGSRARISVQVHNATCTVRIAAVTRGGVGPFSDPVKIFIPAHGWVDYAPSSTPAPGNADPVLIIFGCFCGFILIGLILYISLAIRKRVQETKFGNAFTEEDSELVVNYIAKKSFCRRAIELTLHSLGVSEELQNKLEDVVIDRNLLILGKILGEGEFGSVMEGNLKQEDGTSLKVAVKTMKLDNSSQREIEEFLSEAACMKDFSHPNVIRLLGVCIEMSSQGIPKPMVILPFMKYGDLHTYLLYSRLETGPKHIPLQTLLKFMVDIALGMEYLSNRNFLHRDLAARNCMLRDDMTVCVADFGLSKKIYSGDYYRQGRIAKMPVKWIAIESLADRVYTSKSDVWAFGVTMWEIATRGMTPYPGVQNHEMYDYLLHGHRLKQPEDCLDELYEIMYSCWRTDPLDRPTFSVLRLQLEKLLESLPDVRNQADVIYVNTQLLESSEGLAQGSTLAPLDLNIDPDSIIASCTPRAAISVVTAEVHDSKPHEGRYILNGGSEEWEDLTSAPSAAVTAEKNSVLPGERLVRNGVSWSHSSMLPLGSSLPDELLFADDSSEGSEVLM
Protocol: as §1

TYRO3 = molecular target: T4, TYRO3 (Homo sapiens, UniProt Q06418); experiment: as above; type: biochemical; conditions: 1 µM compound; read-out: % Residual enzymatic activity at 1 µM TYRO3
T4 construct: purchased Eurofins Discovery (Kinase Profiler service)
T4 sequence (Q06418 41-890): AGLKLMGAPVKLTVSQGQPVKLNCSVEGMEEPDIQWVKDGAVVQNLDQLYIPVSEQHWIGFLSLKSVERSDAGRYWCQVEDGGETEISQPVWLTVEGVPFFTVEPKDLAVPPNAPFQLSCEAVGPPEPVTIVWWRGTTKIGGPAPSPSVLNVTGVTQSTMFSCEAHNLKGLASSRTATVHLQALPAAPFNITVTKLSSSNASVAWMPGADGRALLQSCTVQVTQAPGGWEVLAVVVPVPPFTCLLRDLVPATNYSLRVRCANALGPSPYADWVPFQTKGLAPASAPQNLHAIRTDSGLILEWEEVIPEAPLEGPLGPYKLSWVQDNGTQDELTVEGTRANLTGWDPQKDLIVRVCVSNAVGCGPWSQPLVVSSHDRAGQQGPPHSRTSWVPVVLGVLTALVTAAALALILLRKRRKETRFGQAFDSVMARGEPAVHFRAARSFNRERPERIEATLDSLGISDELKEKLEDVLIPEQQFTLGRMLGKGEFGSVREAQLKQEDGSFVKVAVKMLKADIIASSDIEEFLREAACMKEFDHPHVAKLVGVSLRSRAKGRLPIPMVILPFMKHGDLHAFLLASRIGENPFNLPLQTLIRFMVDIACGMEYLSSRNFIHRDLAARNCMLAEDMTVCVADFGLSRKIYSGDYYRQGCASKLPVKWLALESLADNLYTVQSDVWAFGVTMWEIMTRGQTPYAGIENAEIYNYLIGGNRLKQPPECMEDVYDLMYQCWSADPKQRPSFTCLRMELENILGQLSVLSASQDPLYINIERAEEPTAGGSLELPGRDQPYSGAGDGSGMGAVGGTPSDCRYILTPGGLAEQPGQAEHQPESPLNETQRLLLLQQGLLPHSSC
Protocol: as §1

MV4-11 = experiment: Proliferation assay (MTT, leukaemia cancer cell line); type: cell-based; conditions: Homo sapiens; 1 µM compound, MV4-11 cells
Description: Compounds from Example 1 were subjected to standard resazurin and MTT assays on solid tumour and leukaemia cancer cell lines, respectively, as previously reported (Wang S et al., J Med Chem 47:1662-1675, 2004 and Diab S et al., CheMedChem 9:962-972, 2014).

CDK2E = CDK2E (Homo sapiens, UniProt P24941); experiment: ADP Glo Kinase assay; type: biochemical; conditions: 1 µM compound; read-out: % Residual enzymatic activity at 1 µM CDK2E
Protocol: Inhibition of CDKs and FLT3 were determined using ADP Glo Kinase assays, as previously described in International Patent Publication No WO 2017/020065.

T2 sequence (P08581 25-1390): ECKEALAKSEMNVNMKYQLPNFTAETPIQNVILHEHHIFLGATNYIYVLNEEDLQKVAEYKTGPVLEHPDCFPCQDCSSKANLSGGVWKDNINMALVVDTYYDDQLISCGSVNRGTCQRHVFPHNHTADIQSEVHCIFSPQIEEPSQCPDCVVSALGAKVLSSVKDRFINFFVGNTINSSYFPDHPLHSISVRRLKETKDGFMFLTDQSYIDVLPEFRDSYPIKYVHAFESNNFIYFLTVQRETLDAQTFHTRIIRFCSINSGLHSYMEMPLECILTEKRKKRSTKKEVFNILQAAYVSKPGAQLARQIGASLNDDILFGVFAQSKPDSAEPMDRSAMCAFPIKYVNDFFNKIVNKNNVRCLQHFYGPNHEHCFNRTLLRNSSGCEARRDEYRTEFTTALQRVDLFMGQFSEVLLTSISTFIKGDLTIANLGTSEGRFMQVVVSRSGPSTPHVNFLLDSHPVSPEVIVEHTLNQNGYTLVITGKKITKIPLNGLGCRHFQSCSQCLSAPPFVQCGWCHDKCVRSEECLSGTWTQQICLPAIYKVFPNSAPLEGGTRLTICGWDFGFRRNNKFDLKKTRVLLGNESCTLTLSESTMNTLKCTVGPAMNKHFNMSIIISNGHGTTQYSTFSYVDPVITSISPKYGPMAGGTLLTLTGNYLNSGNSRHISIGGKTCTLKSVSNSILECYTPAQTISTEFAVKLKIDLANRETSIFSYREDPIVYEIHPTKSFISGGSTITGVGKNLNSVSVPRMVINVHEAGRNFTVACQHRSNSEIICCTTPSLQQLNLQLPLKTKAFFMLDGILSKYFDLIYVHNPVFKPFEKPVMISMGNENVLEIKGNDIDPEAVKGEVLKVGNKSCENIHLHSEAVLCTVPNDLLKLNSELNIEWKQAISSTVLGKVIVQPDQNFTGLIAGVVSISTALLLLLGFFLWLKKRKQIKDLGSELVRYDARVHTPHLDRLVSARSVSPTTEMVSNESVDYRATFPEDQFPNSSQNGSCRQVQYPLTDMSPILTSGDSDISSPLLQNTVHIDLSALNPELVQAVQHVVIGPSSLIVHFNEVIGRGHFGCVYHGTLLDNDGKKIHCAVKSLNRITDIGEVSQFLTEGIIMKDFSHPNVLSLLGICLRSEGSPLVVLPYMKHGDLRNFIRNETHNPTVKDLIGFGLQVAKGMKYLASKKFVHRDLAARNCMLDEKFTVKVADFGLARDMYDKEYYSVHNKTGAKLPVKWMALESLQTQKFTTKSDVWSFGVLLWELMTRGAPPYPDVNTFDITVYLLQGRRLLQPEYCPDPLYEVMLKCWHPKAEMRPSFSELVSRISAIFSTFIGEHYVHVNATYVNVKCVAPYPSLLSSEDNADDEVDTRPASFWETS

Compound | remaining activity at 1 µM (AXL) | remaining activity at 1 µM (MET) | remaining activity at 1 µM (Mer) | remaining activity at 1 µM (TYRO3) | activity at 1 µM (MV4-11) | remaining activity at 1 µM (CDK2E)
Cc1ccc(-n2cccc(C(=O)Nc3ccc(Oc4ncnc(N)c4Cl)cc3F)c2=O)cc1 [Cmpd 15, N-(4-((6-amino-5-chloropyrimidin-4-yl)oxy)-2-fluorophenyl)-2-oxo-1-(p-tolyl)-1,2-dihydropyridine-3-carboxamide] | 64% | 74% | 99% | 39% | 26% | –
Nc1ncnc(Sc2ccc(NC(=O)c3cccn(-c4ccc(F)cc4)c3=O)cc2F)c1Cl [Cmpd 17, N-(4-((6-amino-5-chloropyrimidin-4-yl)thio)-3-fluorophenyl)-1-(4-fluorophenyl)-2-oxo-1,2-dihydropyridine-3-carboxamide] | 55% | 65% | 81% | 52% | 4% | 101%
Nc1ncnc(Sc2ccc(NC(=O)c3cccn(-c4ccc(F)cc4)c3=O)cc2F)c1F [Cmpd 19, N-(4-((6-amino-5-fluoropyrimidin-4-yl)thio)-3-fluorophenyl)-1-(4-fluorophenyl)-2-oxo-1,2-dihydropyridine-3-carboxamide] | 84% | 78% | 99% | 89% | 6% | 93%
Nc1ncnc(Oc2cc(F)c(NC(=O)c3cccn(-c4ccc(F)cc4)c3=O)cc2F)c1F [Cmpd 20, N-(4-((6-amino-5-fluoropyrimidin-4-yl)oxy)-2,5-difluorophenyl)-1-(4-fluorophenyl)-2-oxo-1,2-dihydropyridine-3-carboxamide] | 31% | 4% | 54% | 2% | 5% | 93%
Nc1ncc(Cl)c(Oc2ccc(NC(=O)c3cccn(-c4ccc(F)cc4)c3=O)cc2F)n1 [Cmpd 24, N-(4-((2-amino-5-chloropyrimidin-4-yl)oxy)-3-fluorophenyl)-1-(4-fluorophenyl)-2-oxo-1,2-dihydropyridine-3-carboxamide] | 99% | 74% | 87% | 94% | 27% | –
Nc1ncc(Cl)c(Oc2ccc(NC(=O)c3cccn(-c4ccc(F)cc4)c3=O)c(F)c2)n1 [Cmpd 25, N-(4-((2-amino-5-chloropyrimidin-4-yl)oxy)-2-fluorophenyl)-1-(4-fluorophenyl)-2-oxo-1,2-dihydropyridine-3-carboxamide] | 92% | 87% | 88% | 89% | 65% | –
Nc1ncnc(Oc2ccc(NC(=O)c3cccn(-c4ccc(Cl)cc4)c3=O)c(F)c2)c1Cl [Cmpd 33, N-(4-((6-amino-5-chloropyrimidin-4-yl)oxy)-2-fluorophenyl)-1-(4-chlorophenyl)-2-oxo-1,2-dihydropyridine-3-carboxamide] | 23% | 10% | 74% | 6% | 1% | 82%
Nc1ncnc(Oc2ccc(NC(=O)c3cccn(-c4ccc(Cl)cc4)c3=O)cc2F)c1F [Cmpd 34, N-(4-((6-amino-5-fluoropyrimidin-4-yl)oxy)-3-fluorophenyl)-1-(4-chlorophenyl)-2-oxo-1,2-dihydropyridine-3-carboxamide] | 50% | 91% | 103% | 69% | 3% | 97%
Nc1ncnc(Sc2ccc(NC(=O)c3cccn(-c4ccc(F)cc4)c3=O)c(F)c2)c1Cl [Cmpd 39, N-(4-((6-amino-5-chloropyrimidin-4-yl)thio)-2-fluorophenyl)-1-(4-fluorophenyl)-2-oxo-1,2-dihydropyridine-3-carboxamide] | 87% | 70% | 82% | – | 4% | 88%
